Measured values published in PubChem BioAssay AID391 (SGCOxCompounds, 2006).

Molecular target: Serine/threonine-protein kinase PAK 6 (Homo sapiens) (UniProt Q9NQU5)
Test: PAK6 binders by thermal shift, biophysical, DSF, SYPRO orange, recombinant protein (AID 391)
Details: at 10 µM, protein 2 µM, buffer 10 mM HEPES, pH 7.5, NaCl 150 mM, run set 1, stronger effect = higher value

Serine/threonine-protein kinase PAK 6 (Homo sapiens), sequence (Q9NQU5 whole entry, looked up): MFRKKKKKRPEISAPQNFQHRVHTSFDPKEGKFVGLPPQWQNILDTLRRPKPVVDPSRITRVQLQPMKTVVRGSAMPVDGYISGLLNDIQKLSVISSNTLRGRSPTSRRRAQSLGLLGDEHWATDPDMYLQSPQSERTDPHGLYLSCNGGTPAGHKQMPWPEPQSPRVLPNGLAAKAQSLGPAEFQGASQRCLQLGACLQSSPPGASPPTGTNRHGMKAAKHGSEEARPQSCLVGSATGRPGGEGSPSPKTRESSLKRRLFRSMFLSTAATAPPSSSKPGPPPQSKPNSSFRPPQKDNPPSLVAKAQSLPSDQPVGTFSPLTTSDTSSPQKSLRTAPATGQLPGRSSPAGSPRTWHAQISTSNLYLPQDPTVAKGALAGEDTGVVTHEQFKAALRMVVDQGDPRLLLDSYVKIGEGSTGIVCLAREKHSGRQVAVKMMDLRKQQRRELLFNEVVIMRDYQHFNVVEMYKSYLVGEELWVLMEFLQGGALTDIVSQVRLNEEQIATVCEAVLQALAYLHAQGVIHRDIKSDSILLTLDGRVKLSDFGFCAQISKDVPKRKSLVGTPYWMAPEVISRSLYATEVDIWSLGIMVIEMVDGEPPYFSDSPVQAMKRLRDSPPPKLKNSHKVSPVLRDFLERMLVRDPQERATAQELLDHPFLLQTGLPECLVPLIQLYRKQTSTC

SMILES | Tm shift [Celsius]
CC(C)C(CO)Nc1nc(Nc2cccc(Cl)c2)c2ncn(C(C)C)c2n1 (centres undefined) | 5.88
N=C(N)SCCCn1cc(C2=C(c3c[nH]c4ccccc34)C(=O)NC2=O)c2ccccc21 | 3.13
O=C1Cc2c([nH]c3ccc(N(O)O)cc23)-c2ccccc2N1 | 3.92
O=C1NC(=O)c2c1c1c3ccccc3n3c1c1c2c2ccccc2n1[C@@H]1CCC3O1 | 6.44
NC(=O)Nc1sc(-c2ccccc2)cc1C(N)=O | 3.43
NCCCn1cc(C2=C(c3c[nH]c4ccccc34)C(=O)NC2=O)c2ccccc21 | 4.48
O=Nc1c(-c2c(O)[nH]c3ccc(S(O)(O)O)cc23)[nH]c2ccccc12 | 3.24
CC(C)n1cnc2c(Nc3cccc(Cl)c3)nc(NCCO)nc21 | 4.44

Same assay, conditions: at 10 µM, protein 2 µM, buffer 10 mM HEPES, pH 7.5, NaCl 150 mM, run set 2, stronger effect = higher value

SMILES | Tm shift [Celsius]
Nc1nc(Nc2ccc(S(N)(=O)=O)cc2)nn1C(=S)Nc1c(F)cccc1F | 5.64
CCN(CC)CCNC(=O)c1c(C)[nH]c(/C=C2\C(=O)Nc3ccc(Cl)cc32)c1C | 3.8
N#Cc1ccc(-c2cnc3ccc(NC4CCOCC4)nn23)cc1 | 3.3
Cc1cc(Nc2nc(-c3ccccc3)nc3ccccc23)n[nH]1 | 5.45
CC(O)(O)C1(O)C[C@@H]2O[C@@]1(C)n1c3ccccc3c3c4c(c5c6ccccc6n2c5c31)C(=O)NC4 (some centres undefined) | 7.7
CCn1cnc2c(Nc3cccc(Cl)c3)nc(N[C@@H]3CCCC[C@@H]3N)nc21 | 7
O=Nc1c(-c2c(O)[nH]c3cc(Br)ccc23)[nH]c2ccccc12 | 3.4
Clc1ccc(-c2cnc3ccc(NC4CCOCC4)nn23)cc1 | 3.5
NCCNc1ncc(C(N)=O)c(Nc2cccc(C(F)(F)F)c2)n1 | 5.21
O=C1Cc2c([nH]c3ccc(Br)cc23)-c2ccccc2N1 | 3.2
O=Nc1c(-c2c(O)[nH]c3ccccc23)[nH]c2ccccc12 | 8.7
Cn1cc(/C=C2\C(=O)Nc3ccc(S(N)(=O)=O)cc32)c2ccccc21 | 4.26
CC(C)n1cnc2c(Nc3cccc(Cl)c3)nc(NCCO)nc21 | 3.2
NC(=O)c1ccc(-c2nc(-c3ccc4c(c3)OCCO4)c(-c3ccccn3)[nH]2)cc1 | 4.8
OCC(O)CCO/N=C1/C(c2c(O)[nH]c3ccccc23)=Nc2ccccc21 (centres undefined) | 3.3
O=C1NCc2c1c1c3ccccc3[nH]c1c1[nH]c3ccccc3c21 | 3.1
